Experimental data: ChEMBL document CHEMBL3046593, “Studies on the synthesis of some new substituted benzylamino and phenyl-acrylamido-methyl flavone derivatives” (2007)
Activity calls are given as the source filed them. No cut-off for these calls is given here.

Legend:
Assay type in all cases: functional
Settings in all cases: for zone of inhibition at 3000 µg/mL: read-out: DIZ
Escherichia coli = assay: Antibacterial activity against Escherichia coli RSKK 313 at 3000 ug/ml after 18 to 24 hr by disk diffusion method
Candida albicans = assay: Antifungal activity against Candida albicans RSKK 628 at 3000 ug/ml after 18 to 24 hr by disk diffusion method
Staphylococcus aureus = assay: Antibacterial activity against Staphylococcus aureus ATCC 250 at 3000 ug/ml after 18 to 24 hr by disk diffusion method

SMILES | diameter of the inhibition zone (DIZ) (Escherichia coli) | diameter of the inhibition zone (DIZ) (Candida albicans) | diameter of the inhibition zone (DIZ) (Staphylococcus aureus) | zone of inhibition at 3000 µg/mL (Escherichia coli) [mm] | zone of inhibition at 3000 µg/mL (Candida albicans) [mm] | zone of inhibition at 3000 µg/mL (Staphylococcus aureus) [mm]
O=C(/C=C/c1ccccc1)N(Cc1ccc(F)cc1)Cc1cccc(-c2cc(=O)c3ccccc3o2)c1 | inactive | inactive | inactive | – | – | –
O=c1cc(-c2cccc(CNCc3ccccc3)c2)oc2ccccc12 | – | – | – | 10 | 25 | 16
O=C(/C=C/c1ccccc1)N(Cc1ccc(Cl)cc1)Cc1cccc(-c2cc(=O)c3ccccc3o2)c1 | – | – | inactive | 12 | 13 | –
Clc1ccc(COC(Cn2ccnc2)c2ccc(Cl)cc2Cl)c(Cl)c1 (stereo not drawn) [MICONAZOLE] | – | – | – | – | 35 | –
O=C(/C=C/c1ccccc1)N(Cc1cccc(-c2cc(=O)c3ccccc3o2)c1)Cc1ccc(Cl)c(Cl)c1 | inactive | – | inactive | – | 15 | –
O=c1cc(-c2cccc(CNCc3ccc(Cl)cc3)c2)oc2ccccc12 | inactive | – | – | – | 15 | 25
O=C(/C=C/c1ccccc1)N(Cc1ccccc1)Cc1cccc(-c2cc(=O)c3ccccc3o2)c1 | inactive | inactive | – | – | – | 10
O=C(/C=C/c1ccccc1)N(Cc1cccc(-c2cc(=O)c3ccccc3o2)c1)Cc1ccc(Cl)cc1Cl | inactive | – | inactive | – | 15 | –
O=c1cc(-c2cccc(CNCc3ccc(Cl)c(Cl)c3)c2)oc2ccccc12 | – | – | – | 12 | 10 | 16
CC1(C)S[C@@H]2[C@H](NC(=O)[C@H](N)c3ccccc3)C(=O)N2[C@H]1C(=O)O [AMPICILLIN] | – | – | – | 20 | – | 30
O=c1cc(-c2cccc(CNCc3ccc(F)cc3)c2)oc2ccccc12 | inactive | – | – | – | 20 | 15
O=c1cc(-c2cccc(CNCc3ccc(Cl)cc3Cl)c2)oc2ccccc12 | inactive | inactive | – | – | – | 10
